Consider six compounds from ChEMBL document CHEMBL1955731, “Design and synthesis of novel bone-targeting dual-action pro-drugs for the treatment and reversal of osteoporosis” (Bioorg Med Chem, 2012).

In series [1] the test system is Bone. Put plainly: Binding affinity to rat bone at 0.1 mg/ml after 10 mins. The series is classed as ADME, tissue-based, Bone element.
In series [2] the test system is Plasma. The series is described as follows: Prodrug conversion in rat plasma assessed as compound conversion to 7-((R)-2-((R,E)-4,4-difluoro-3-hydroxy-4-phenylbut-1-enyl)-5-oxopyrrolidin-1-yl)heptanoic acid at 100 ug/ml after 30 mins by HPLC analysis. The series is classed as ADME, cell-free. The note with it: 0.5 h.
Series [3] deals with Plasma. The series is described as follows: Prodrug conversion in rat plasma assessed as compound conversion to 7-((R)-2-((R,E)-4,4-difluoro-3-hydroxy-4-phenylbut-1-enyl)-5-oxopyrrolidin-1-yl)heptanoic acid at 100 ug/ml for 96 hrs by HPLC-MS-MS analysis. The series is classed as ADME, cell-free.
Series [4] concerns Bone. The series is described as follows: Drug uptake in rat bone after 5 mins. The series is classed as ADME, tissue-based, Bone element. The following applies: in vivo.
Series [5] in a line: Elimination half life in Sprague-Dawley rat at 5 mg/kg, iv. The series is classed as ADME, organism-based. On the set-up: dose 5 mg/kg, route intravenous. The note with it: in vivo, read-out: beta t1/2.
Series [6] deals with Bone. Put plainly: Drug uptake in Sprague-Dawley rat bone at 5 mg/kg, iv after 24 hrs. The series is classed as ADME, organism-based, Bone element. On the set-up: dose 5 mg/kg, route intravenous. The note with it: in vivo.
Series [7] concerns Bone. The series is described as follows: Drug uptake in Sprague-Dawley rat bone at 5 mg/kg, iv after 7 days. The series is classed as ADME, organism-based, Bone element. The following applies: in vivo, 168 h. On the set-up: dose 5 mg/kg, route intravenous.
For series [8], the system named is Bone. Put plainly: Drug uptake in Sprague-Dawley rat bone at 5 mg/kg, iv after 14 days. The series is classed as ADME, organism-based, Bone element. On the set-up: dose 5 mg/kg, route intravenous. The note with it: in vivo, 336 h.
In series [9] the test system is Bone. The series is described as follows: Drug uptake in Sprague-Dawley rat bone at 5 mg/kg, iv after 28 days. The series is classed as ADME, organism-based, Bone element. On the set-up: dose 5 mg/kg, route intravenous. The note with it: in vivo, 672 h.
The subject of series [10] is Rattus norvegicus. The series is described as follows: Toxicity in Sprague-Dawley rat at 5 mg/kg, iv. Also on record: dose 5 mg/kg, route intravenous. The note with it: in vivo. The series is classed as organism-based.
The nature of series [11]: Drug excretion in Sprague-Dawley rat feces at 5 mg/kg, iv after 24 hrs. The series is classed as ADME, organism-based. Also on record: dose 5 mg/kg, route intravenous. The note with it: in vivo.
Series [12] can be described thus: Drug excretion in Sprague-Dawley rat urine at 5 mg/kg, iv after 24 hrs. The series is classed as ADME, organism-based. The note with it: in vivo. Also on record: dose 5 mg/kg, route intravenous.
The test system of series [13] is Bone. The series is described as follows: Drug uptake in Sprague-Dawley rat bone at 10 mg/kg, iv after 6 hrs. The series is classed as ADME, organism-based, Bone element. The note with it: in vivo. On the set-up: dose 10 mg/kg, route intravenous.
The subject of series [14] is Bone. The series is described as follows: Drug uptake in Sprague-Dawley rat bone at 10 mg/kg, iv after 2 days. The note with it: in vivo, 48 h. The series is classed as ADME, organism-based, Bone element. Also on record: dose 10 mg/kg, route intravenous.
For series [15], the system named is Bone. The series is described as follows: Drug uptake in Sprague-Dawley rat bone at 10 mg/kg, iv after 7 days. The series is classed as ADME, organism-based, Bone element. Also on record: dose 10 mg/kg, route intravenous. The note with it: in vivo, 168 h.
Series [16] relates to Bone. Put plainly: Drug uptake in Sprague-Dawley rat bone at 10 mg/kg, iv after 14 days. The series is classed as ADME, organism-based, Bone element. On the set-up: dose 10 mg/kg, route intravenous. The note with it: in vivo, 336 h.
Series [17] in a line: Elimination half life in Sprague-Dawley rat at 10 mg/kg, iv. The series is classed as ADME, organism-based. Also on record: dose 10 mg/kg, route intravenous. The note with it: in vivo, read-out: beta t1/2.

Structures are written as SMILES.

`O=C(O)CCCCCCN1C(=O)CC[C@@H]1/C=C/[C@@H](O)C(F)(F)c1ccccc1`: the Activity result in [1] is given as “Not Active”.

In the case of `O=C1CC[C@H](/C=C/[C@@H](O)C(F)(F)c2ccccc2)N1CCCCCCc1nnn[nH]1`, the Activity entry in [1] was “Not Active”.

Turning to `CCOC(=O)CCCCCCN1C(=O)CC[C@@H]1/C=C/[C@@H](O)C(F)(F)c1ccccc1`, in series [2], the Drug metabolism entry is “Active”. Besides, the Activity entry in [1] is “Not Active”.

For `CCOC(=O)CCCCCCN1C(=O)CC[C@@H]1/C=C/[C@@H](OC(=O)NCCCC(O)(P(=O)(O)O)P(=O)(O)O)C(F)(F)c1ccccc1`, in [3], the Drug metabolism entry is given as “Not Active”.

`[3H]C([3H])([3H])COC(=O)CCCCCCN1C(=O)CC[C@@H]1/C=C/[C@@H](OC(=O)NCCCC(O)(P(=O)(O)O)P(=O)(O)O)C(F)(F)c1ccccc1`: the Activity is given as 90% in series [1] and “Non-toxic” in series [10]. Further, the Drug uptake in [4] is listed as 96%; in series [6], 9.4%; in [7], 8%; in series [8], 6.2%; in [9] it was 5.6%. The half-life in [5] is below 15 min. Further, the Drug excretion entry in series [11] is on record as “Active”; in [12], “Not Active”.

Regarding `CCN(CC)CC.[3H]C([3H])([3H])COC(=O)CCCCCCN1C(=O)CC[C@@H]1/C=C/[C@@H](OC(=O)Cc1ccc(OC(=O)NCCCC(O)(P(=O)(O)O)P(=O)(O)O)cc1)C(F)(F)c1ccccc1`, the Drug uptake in series [13] is given as 5.9%; in series [14] it was 4.9%; in series [15], 2.2%; in series [16], 1.4%. For the same compound, the half-life in series [17] is below 30 min.
